Values joined by “and” are separate entries in the source; they are usually repeats but may differ in a detail not shown here. Equal values may be shown once.
Experiments:
[1] = system: orthotopic HepG2/Luc liver tumors; test: Chemotherapy of orthotopic liver tumors (BL imaging, ex vivo BL and FL imaging); assay type: in vivo, mice;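 further: bioluminescence quantified by ROI over liver region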
[2] = Body weight of mice with orthotopic HepG2/Luc liver tumors; assay type: in vivo; conditions: mean of 3, in g (unit assumed)
[3] = LogP measurement in solutions; assay type: physicochemical; conditions: octanol / octanol-saturated water
Excerpt: incompatibility between particles i and j. Considering the relative position and chemical components of all the beads, we always keep aAB = aAC = 28, aAS = aCS = 25, and aBS = 35. The concentration of ABC or AB is fixed at 0.03. We performed the dynamics of total 81 000 DPD beads in a cubic box (303) under the periodic boundary conditions.
In these conditions, we carry out 1.0 × 106 steps for each simulation.
Molecular simulation using the Materials Studio program. For each molecule, the most favourable crystal packing was predicted using the Polymorph module as implemented in Materials Studio. The crystal structure prediction protocol includes three parts, Packing, Geometry Optimization and Clustering. […]
Evaluation of the dephosphorylated efficacy of P-CyPt towards ALP. […] The resulting fluorescence intensities in each well in the first 30 minutes were recorded on a Spark™ 10M Multimode Microplate Reader (λex/em = 680/710 nm), and every two-minute intervals record one point. The amount of CyPt at each time point was determined by a standard curve under the same […]
LogP measurement in solutions. […] The UV-vis absorption spectroscopy or fluorescence spectrum was recorded after being diluted in MeOH/H2O (1:1) system (<1% octanol). The logP value was calculated by dividing the amount in the octanol layer to […]

s.c. HeLa tumors = test: PA imaging of s.c. HeLa tumors in vivo; design: species or system mice; conditions: i.v., 2 h post-injection
Method: (100 μM, in 200 μL saline). Whole body FL images of mice prior to (pre) and at 1 h, 2 h, 4 h, 8 h post injection of P-CyPt or […] acquired on the IVIS Lumina XR III imaging system, using a 660 nm excitation filter and a 750 ± 50 nm emission filter. Each experiment was conducted in three mice. The FL intensities were quantified by the region of interest (ROI) measurement using Living Image Software (4.5.2, PerkinElmer, MA, U.S.A). […] (500 μM, in 200 μL saline). The PA images of the s.c. HeLa tumors in mice prior to (pre), and at 1, 2, 4 h post injection were captured on the Vevo 2100 LAZR system (FUJIFILM VisualSonics), with excitation at 700 and 750 nm. The PA intensities were quantified by the equipped software.

ALP = test: Dephosphorylated efficacy of P-CyPt towards varying concentrations of ALP (NIR fluorescence); assay type: biochemical; conditions: for Normalized FL intensity: ALP 0 U/L; for normalized signal over time (section 'Supplementary Fig. 2c'), mean of 3: 250 μM
[4] = 2.25 mg kg^−1 Pt i.v. day 0, 3, 6, 9, 12, day 3

With `[NH2][Pt]([NH2])([Cl])[Cl]` [CDDP, cisplatin] the “tumor BL intensity of liver” value [1, 4] was 88767.5, the “tumor BL intensity of liver” value ([1]; day 6) was 201697.5 and the “tumor BL intensity of liver” value ([1]; day 9) was 375850.0. For the same molecule, the “tumor BL intensity of liver” value ([1]; day 12) was 589375.0, the “Body weight of mice (Supplementary Fig. 34)” value (“Body weight of mice” for short) ([2]; time 0 d) was 20.65 and the “Body weight of mice” value ([2]; time 3 d) was 20.2. For the same molecule, the “Body weight of mice” value ([2]; time 6 d) was 19.4233, the “Body weight of mice” value ([2]; time 9 d) was 18.65 and the “Body weight of mice” value ([2]; time 12 d) was 17.8733. The “Body weight of mice” value ([2]; time 15 d) was 17.5.

Work on `CC1(C)C(/C=C/C2=C3Oc4cc(O)c(Cl)cc4C=C3CCC2)=[N+](CCCNC(=O)[C@@H](Cc2ccccc2)NC(=O)[C@@H](Cc2ccccc2)NC(=O)CCC(=O)[O][Pt]([NH2])([NH2])([OH])([Cl])[Cl])c2ccccc21` [CyPt] yielded a LogP value [3] of 2.50 ± 0.03.

For `CC1(C)C(/C=C/C2=C3Oc4cc(OP(=O)(O)O)c(Cl)cc4C=C3CCC2)=[N+](CCCNC(=O)[C@@H](Cc2ccccc2)NC(=O)[C@@H](Cc2ccccc2)NC(=O)CCC(=O)[O][Pt]([NH2])([NH2])([OH])([Cl])[Cl])c2ccccc21` [P-CyPt], the “tumor PA intensity at 700 nm higher than with Pt^IVNPs” value (s.c. HeLa tumors) was about 3.4 fold, the “tumor PA intensity at 750 nm higher than with Pt^IVNPs” value (s.c. HeLa tumors) was about 4.3 fold and the “tumor BL intensity of liver” value [1, 4] was 2725.3. For the same molecule, the “tumor BL intensity of liver” value ([1]; day 6) was 3155.3, the “tumor BL intensity of liver” value ([1]; day 9) was 3616.5 and the “tumor BL intensity of liver” value ([1]; day 12) was 6594.0. The LogP value [3] was 0.68 ± 0.03, the “Normalized FL intensity” value (ALP; 0 min, mean of 3 samples) was 1.022 and the “Normalized FL intensity” value (ALP; 0 min, single samples) was 0.9783 and 1.039 and 1.048. For the same molecule, the “Normalized FL intensity” value (ALP; 2 min, mean of 3 samples) was 1.026, the “Normalized FL intensity” value (ALP; 2 min, single samples) was 0.9783 and 1.057 and 1.043 and the “Normalized FL intensity” value (ALP; 4 min, mean of 3 samples) was 1.02. For the same molecule, the “Normalized FL intensity” value (ALP; 4 min, single samples) was 1.0087 and 1.035 and 1.017, the “Normalized FL intensity” value (ALP; 6 min, mean of 3 samples) was 1.039 and the “Normalized FL intensity” value (ALP; 6 min, single samples) was 1.087 and 1.03 and 1. The “Normalized FL intensity” value (ALP; 8 min, mean of 3 samples) was 1.032, the “Normalized FL intensity” value (ALP; 8 min, single samples) was 1.087 and 1.013 and 0.9957 and the “Normalized FL intensity” value (ALP; 10 min, mean of 3 samples) was 1.035. The “Normalized FL intensity” value (ALP; 10 min, single samples) was 1.083 and 1.017 and 1.004, the “Normalized FL intensity” value (ALP; 12 min, mean of 3 samples) was 1.029 and the “Normalized FL intensity” value (ALP; 12 min, single samples) was 1.083 and 1.004 and 1. The “Normalized FL intensity” value (ALP; 14 min, mean of 3 samples) was 1.014, the “Normalized FL intensity” value (ALP; 14 min, single samples) was 1.065 and 0.9957 and 0.9826 and the “Normalized FL intensity” value (ALP; 16 min, mean of 3 samples) was 1.013. The “Normalized FL intensity” value (ALP; 16 min, single samples) was 1.057 and 0.9957 and 0.987, the “Normalized FL intensity” value (ALP; 18 min, mean of 3 samples) was 1.0087 and the “Normalized FL intensity” value (ALP; 18 min, single samples) was 1.048 and 1 and 0.9783. For the same molecule, the “Normalized FL intensity” value (ALP; 20 min, mean of 3 samples) was 1.016, the “Normalized FL intensity” value (ALP; 20 min, single samples) was 1.039 and 0.9913 and 1.017 and the “Normalized FL intensity” value (ALP; 22 min, mean of 3 samples) was 1.023. The “Normalized FL intensity” value (ALP; 22 min, single samples) was 1.104 and 0.9913 and 0.9739, the “Normalized FL intensity” value (ALP; 24 min, mean of 3 samples) was 1 and the “Normalized FL intensity” value (ALP; 24 min, single samples) was 1.039 and 0.9957 and 0.9652. For the same molecule, the “Normalized FL intensity” value (ALP; 26 min, mean of 3 samples) was 1.0029, the “Normalized FL intensity” value (ALP; 26 min, single samples) was 1.035 and 1.004 and 0.9696 and the “Normalized FL intensity” value (ALP; 28 min, mean of 3 samples) was 1.014. The “Normalized FL intensity” value (ALP; 28 min, single samples) was 1.026 and 0.9913, the “Normalized FL intensity” value (ALP; 30 min, mean of 3 samples) was 1.00E+00 and the “Normalized FL intensity” value (ALP; 30 min, single samples) was 1.04E+00 and 9.91E-01 and 0.9783. The “normalized signal over time (section 'Supplementary Fig. 2c'), mean of 3” value (shortened to “normalized signal over time”) (ALP; time 200 min) was 0.9941, the “normalized signal over time” value (ALP; time 220 min) was 0.9946 and the “normalized signal over time” value (ALP; time 240 min) was 0.9956. For the same molecule, the “normalized signal over time” value (ALP; time 300 min) was 0.9969, the “normalized signal over time” value (ALP; time 340 min) was 0.9978 and the “normalized signal over time” value (ALP; time 360 min) was 0.9982. For the same molecule, the “normalized signal over time” value (ALP; time 380 min) was 0.998, the “normalized signal over time” value (ALP; time 400 min) was 0.9983 and the “normalized signal over time” value (ALP; time 420 min) was 0.9984. The “normalized signal over time” value (ALP; time 460 min) was 0.9985, the “normalized signal over time” value (ALP; time 480 min) was 0.9989 and the “normalized signal over time” value (ALP; time 500 min) was 0.9986. The “normalized signal over time” value (ALP; time 520 min) was 0.9984, the “normalized signal over time” value (ALP; time 540 min) was 0.9984 and the “normalized signal over time” value (ALP; time 560 min) was 0.9984. For the same molecule, the “normalized signal over time” value (ALP; time 580 min) was 0.9984, the “normalized signal over time” value (ALP; time 600 min) was 0.9984 and the “Body weight of mice” value ([2]; time 0 d) was 19.4. For the same molecule, the “Body weight of mice” value ([2]; time 3 d) was 19.7033, the “Body weight of mice” value ([2]; time 6 d) was 19.4233 and the “Body weight of mice” value ([2]; time 9 d) was 19.8233. For the same molecule, the “Body weight of mice” value ([2]; time 12 d) was 20.0233 and the “Body weight of mice” value ([2]; time 15 d) was 19.9233.

Reference: PMC9925730, “Controlled sequential in situ self-assembly and disassembly of a fluorogenic cisplatin prodrug for cancer theranostics” (Nature Communications, 2023)
